Assay results from patent EP1285971B1, “Methods for the phenotypic and genotypic assessment of the drug sensitivity of HIV integrase variants” (Tibotec Pharmaceuticals Ltd., priority 2001, dated 2003).

Experiments:
Test in all cases: Antiviral assay with recombinant virus generated from site-directed mutant virus
Type in all cases: cell-based, HIV
[1] = test system: M154I mutation
Description: (§1) The integrase encoding sequence was amplified from either wildtype HIV-1 (IIIB) or NL4.3 virus, or HXB2D site-directed mutant viruses containing mutations in integrase (such as T66I, S153Y, M154I, or combinations thereof) (Hazuda et al., Science 2000, 287, 646-650), or patient samples. Starting from RNA, extracted from virus supernatant or plasma using the QIAamp® viral RNA extraction kit (Qiagen), cDNA was synthesized by reverse transcription (Expand TM reverse transcriptase, 30 min at 42°C) with the primer 3'EGINT10 (SEQ ID NO 11), followed by a nested PCR. The outer PCR was performed with the primers 5'EGINT1 (SEQ ID NO 1) and 3'EGINT10 (SEQ ID NO 11) (ΔR-IN-vif construct) or 5'EGINT3 (SEQ ID NO 4) and 3'EGINT10 (SEQ ID NO 11) (ΔIN construct) (Expand™ High Fidelity PCR system), and 5 µl of the outer product was used for an inner PCR with primers 5'EGINT2 (SEQ ID NO 3) and 3'EGINT11 (SEQ ID NO 12) (ΔR-IN-vif construct) or 5'EGINT4 (SEQ ID NO 5) and 3'EGINT6 (SEQ ID NO 7) (ΔIN construct). In a second protocol the outer primers were identical as described above, the inner primers are 5'EGINT5 (SEQ ID NO 6) and 3'EGINT6 (SEQ ID NO 7). The amplicons can be used for genotyping and phenotyping. Cycling conditions for both PCRs are denaturation for 3 min at 95°C, followed by 30 cycles of 1 min 90°C, 30 sec 55°C, and 2 min 72°C. A final extension was performed at 72°C for 10 min. For recombination, PCR products are purified using the QiaQuick® 96 PCR BioRobot kit (Qiagen), according to the manufacturer's protocol. If the protocol starts from DNA containing the HIV material such as proviral DNA, the reverse transcriptase step is not needed. The nested approach is also not needed when starting from proviral DNA. The obtained amplicons were sequenced using the primers: In_seq1F (SEQ ID NO 17), In_seq2F (SEQ ID NO 18), In_seq3F (SEQ ID NO 19), IN_seq1R (SEQ ID NO 20), IN_seq2R (SEQ ID NO 21), and IN_seq3R (SEQ ID NO 22).
(§2) Recombinant virus was produced by co-transfection by electroporation of the SmaI-linearized IN-deletion construct and the integrase amplicon into MT4 cells or MT4 cells equipped with an LTR driven reporter gene construct. Production of recombinant virus was evaluated by scoring the cytopathogenic effect (CPE) that is induced by HIV-infection of MT4 cells or by the LTR-driven reporter signal induced by HIV infection in MT4 reporter cells. Green fluorescent protein was used as the reporter signal. Viruses are harvested and titrated at maximum CPE. For recombination the deletion construct pSV40HXB2D-ΔIN was used. Recombination experiments were performed with amplicon from wildtype HIV IIIB and NL4.3, and patient sample 146514 generated by both primer sets. For each recombination 2 µg amplicon was co-transfected with 10 µg SmaI-digested pSV40HXB2D-ΔIN by electroporation into MT4-LTR-EGFP cells. Virus stocks were titrated and tested in an antiviral experiment on a reference panel including nucleoside reverse transcriptase inhibitors (NRTI), non- nucleoside reverse transcriptase inhibitors (NNRTI), protein inhibitor (PR), entry and integrase (IN) inhibitors (Table 2). Recombination was checked by nucleic acid sequence analysis using protocols known to the person skilled in the art. Sequencing primers which can be used are In_seq1F (SEQ ID NO 17), In_seq2F (SEQ ID NO 18), In_seq3F (SEQ ID NO 19), IN_seq1R (SEQ ID NO 20), IN_seq2R (SEQ ID NO 21), and IN_seq3R (SEQ ID NO 22).

[2] = test system: S153Y
Description: as §1, §2

[3] = test system: T661/M154I mutations
Description: as §1, §2

[4] = test system: T66I mutation
Description: as §1, §2

[5] = test system: T66I/S153Y mutations
Description: as §1, §2

`CC(C)Oc1ccc(Cc2ccccc2)cc1C(=O)CC(=O)C(=O)O` [Compound 4, 2-(1-methylethyloxy)-α,γ dioxo-5-(phenylmethyl)-benzenebutanoic acid] was tested, and the “fold increase in EC50” value [1] was 3 fold, the “fold increase in EC50” value [2] was 5 fold and the “fold increase in EC50” value [3] was 10 fold. For the same compound, the “fold increase in EC50” value [4] was 2 fold and the “fold increase in EC50” value [5] was 10 fold.
